Data on 59 molecules can be found in the METLIN SMRT retention time set (Domingo-Almenara et al. 2019).

SMILES strings stand for the structures.

The nature of the data set: gradient 5% acetonitrile 3 min, to 50% in 2 min, to 85% in 15 min, held 3 min, 100 µL/min. The settings on record: column: Zorbax Extend-C18 2.1 x 50 mm; eluents: water / acetonitrile, 0.1% formic acid. The essentials:
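Using water and acetonitrile that each contained 0.1% formic acid, mixtures of ~100 pure standards were separated at 100 μL/min on a Zorbax Extend-C18 column (2.1 × 50 mm, 1.8 μm). The HPLC fed a quadrupole time-of-flight mass spectrometer working in positive and negative ionization mode, with dead and dwell volumes of 40 μL and 900 μL. Data were acquired over 3 months. Retention time was read from computationally picked adduct peaks after manual inspection of each.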
The molecule `Cc1ccccc1OCC(=O)NC(C)c1ccccc1` (centres undefined) yielded an RP-LC retention time of 903 s.

Molecule `NC(=O)c1cnc(-c2ccccc2)n(CC(=O)Nc2ccccc2Br)c1=O` had an RP-LC retention time of 740 s.

For the molecule `Cc1nc(-c2cc(S(=O)(=O)Nc3ccc(Br)cc3)c(C)s2)cs1`, the RP-LC retention time is 1070 s.

In turn, `Cc1nn(CC(=O)N2CCCCCC2)c(=O)c2nc(-c3ccccc3)sc12` registered an RP-LC retention time of 872 s.

`Clc1ccc(C2Cn3nnc(-c4nc(-c5ccncc5)no4)c3CO2)cc1` (centres undefined) returned an RP-LC retention time of 1000 s.

As to `CCn1cc(-c2ccc(F)cc2)cc1C(=O)N1CCC(C)CC1`, the RP-LC retention time is 1150 s.

`CCc1ccc(OCc2ccccc2C(=O)Nc2ccc3nc(C)cc(N)c3c2)cc1` showed an RP-LC retention time of 838 s.

The molecule `CCCCC(=O)N1CCN(c2ncccc2-c2nnc(C(C)C)o2)CC1` returned an RP-LC retention time of 794 s.

As for `CCOC(=O)c1c(C)[nH]c(C(=O)N2CCCC(C(=O)NCCc3c[nH]c4ccccc34)C2)c1C` (centres undefined), the RP-LC retention time stood at 808 s.

As for `COc1ccc(C)cc1NC(=O)NCC(c1cccnc1)c1cn(C)c2ccccc12` (centres undefined), the RP-LC retention time was 734 s.

`O=C(NCCN1CCCCCC1)c1csc(-c2ccnc(N3CCOCC3)c2)n1` came in with an RP-LC retention time of 569 s.

Consider `CCc1ccc(NS(=O)(=O)c2cc(-c3ccn[nH]3)sc2C)cc1`, for which the RP-LC retention time amounted to 854 s.

In turn, `COc1ccc(NC(=O)N2C[C@@H](F)C[C@H]2C(=O)N2CCc3ccccc3C2)c(OC)c1` came in with an RP-LC retention time of 790 s.

On to `CCCc1nc2cccnc2n1C1CCN(C(=O)Nc2cccc(OC)c2)C1` (centres undefined), for which the RP-LC retention time was 617 s.

Molecule `CC(C)CCNC(=O)C1(C)CN(S(=O)(=O)c2ccccc2)CC(=O)N1c1ccc(F)cc1` (centres undefined) displayed an RP-LC retention time of 959 s.

The molecule `O=C(Nc1nc(-c2ccccc2)cs1)c1ccccc1[N+](=O)[O-]` had an RP-LC retention time of 947 s.

In the case of `CCOc1ccc2nc(C(=O)NCc3ccccc3Br)cn2n1`, the RP-LC retention time came to 947 s.

With `CC(C)Cn1c(=O)c2ccccc2n(Cc2nc(-c3ccccc3)no2)c1=O`, the RP-LC retention time was found to be 1040 s.

Consider `Cc1ccc(C(=O)Nc2ccc(N3CCN(C4CCCC4)C3=O)nc2)cc1F`, for which the RP-LC retention time is 918 s.

In the case of `Cc1cccc2sc(N(CCN(C)C)C(=O)c3ccc(S(=O)(=O)N(C)C)cc3)nc12`, the RP-LC retention time was 598 s.

On to `O=C(Nc1ccc(F)cc1)Nc1c(-c2ccccc2)nc2ccccn12`, for which the RP-LC retention time is 651 s.

Regarding `COc1ccccc1-c1nc2nccc(-c3cc4ccccc4o3)n2n1`, the RP-LC retention time stood at 1010 s.

`O=C([C@@H]1C[C@H](F)CN1S(=O)(=O)c1cc(F)cc(F)c1)N1CCCCC1`: the RP-LC retention time was 837 s.

In turn, `COc1ccc(NC(=O)c2c(O)c3cccnc3n(-c3ccc(OC)cc3)c2=O)cc1` came in with an RP-LC retention time of 800 s.

`N#Cc1cc2c(nc1SCC(=O)Nc1nc(-c3ccccc3)cs1)CCCC2=O` registered an RP-LC retention time of 1020 s.

`COC[C@@H]1CN(S(=O)(=O)c2cn(C)cn2)C[C@H]1c1ccccn1` displayed an RP-LC retention time of 567 s.

As to `CCn1cc(CCNC(=O)Nc2cc(C)cc(C)c2)c2cccnc21`, the RP-LC retention time turned out to be 705 s.

Take `Clc1ccccc1-n1ncc2c(NCc3ccco3)ncnc21`: the RP-LC retention time turned out to be 719 s.

Molecule `Cn1nc(-c2nc(C3CC3)no2)c2c1CCN(C(=O)c1ccc(C(F)(F)F)s1)C2` had an RP-LC retention time of 970 s.

Take `CC1(C(=O)NC2CCCC2)Cn2cnc(C(=O)NCc3cccc(Cl)c3)c2C(=O)N1C1CC1` (centres undefined): the RP-LC retention time is 955 s.

On to `CC1(C)C(=O)Nc2ccc(S(=O)(=O)N3CCC(c4noc(-c5ccncc5)n4)C3)cc21` (centres undefined), for which the RP-LC retention time turned out to be 700 s.

Turning to `O=C(CN1CC=C(c2cnn(-c3ccccc3)c2)CC1)N1CCOCC1`, the RP-LC retention time is 604 s.

`CCN(CCNC(=O)c1cccc2c1SCCC2=O)Cc1ccccc1` gave an RP-LC retention time of 627 s.

`COc1ccc(-c2cc3c(=O)n(CC(=O)N4CCN(c5ccccn5)CC4)nc(C)n3n2)cc1` had an RP-LC retention time of 663 s.

`CCNc1cc(N2CCC(CCC(=O)N3CCN(C(C)C)CC3)CC2)ncn1` came in with an RP-LC retention time of 524 s.

The molecule `COc1ccc2[nH]cc(CCN3CC(C(=O)Nc4ccc(Cl)cc4)CC3=O)c2c1` (centres undefined) yielded an RP-LC retention time of 829 s.

`Cc1cccc(-n2c(=O)c3c(cc(C)n3C)n(CC(=O)Nc3cccc(Br)c3)c2=O)c1` showed an RP-LC retention time of 962 s.

In the case of `CCN1CCN(c2ccc(NC(=O)c3cccc(C)c3)cn2)C1=O`, the RP-LC retention time was 742 s.

In turn, `Cc1ccc(NC(=O)C2CCN(C(=O)c3ncn4c3COC(c3ccc(F)cc3)C4)CC2)c(Cl)c1` (centres undefined) had an RP-LC retention time of 842 s.

For `O=C(CC1=CCCCC1)N1CC(F)(F)C[C@H]1c1nc(C2CC2)no1`, the RP-LC retention time was 1000 s.

`O=C1OCC/C1=C\c1ccc(O)cc1` registered an RP-LC retention time of 711 s.

For `CCN(CC)C(=O)c1ccc(-c2nc3cc(NS(=O)(=O)c4cc(F)ccc4C)ccc3n2C)cc1`, the RP-LC retention time is 723 s.

In turn, `O=C1NC2(CCN(C(=O)c3ccc(F)cc3)CC2)N=C1c1cccc(F)c1` gave an RP-LC retention time of 635 s.

In turn, `Cc1csc(-c2ccc(N3CCN(C(=O)Cc4cccc(Cl)c4)CC3)nc2)n1` came in with an RP-LC retention time of 896 s.

Take `O=C(COc1ccccc1F)N1CCN(Cc2nc(C3CC3)cs2)CC1`: the RP-LC retention time was determined as 640 s.

As to `Cc1ccc(CNC(=O)C(=O)NCC(c2ccc3c(c2)CCCN3C)N2CCOCC2)cc1` (centres undefined), the RP-LC retention time was 610 s.

Take `COc1ccc(CCCOC(Cn2ccnc2)c2ccc(OC)cc2)cc1` (centres undefined): the RP-LC retention time worked out at 785 s.

For `c1ccc(-n2nnc(-c3noc(-c4cccnc4)n3)c2-c2ccncc2)cc1`, the RP-LC retention time worked out at 737 s.

`O=C(NCC1COc2ccccc2O1)C(=O)Nc1cccc(Br)c1` (centres undefined): the RP-LC retention time came out at 1030 s.

Consider `Cc1ccn2cc(C(=O)NCCc3ccc(S(N)(=O)=O)cc3)nc2c1`, for which the RP-LC retention time turned out to be 551 s.

In turn, `O=C(Cn1cnc2nc3c(cc2c1=O)CCCC3)NC1CCCCCC1` gave an RP-LC retention time of 662 s.

The molecule `CCCn1cc(CCNS(=O)(=O)c2ccccc2C(F)(F)F)c2cccnc21` returned an RP-LC retention time of 904 s.

`CCN(CC)C(=O)N1CCCC(Cc2nncn2-c2ccccc2)C1` (centres undefined): the RP-LC retention time turned out to be 628 s.

Regarding `O=C(c1cccnc1)N1CCC(c2nc(-c3ccccc3)no2)C1` (centres undefined), the RP-LC retention time amounted to 726 s.

In turn, `O=C1CN(S(=O)(=O)c2ccccc2C(F)(F)F)CC2(CCCCC2)N1C1CCCC1` displayed an RP-LC retention time of 1230 s.

Turning to `COC(=O)c1ccc2c(=O)n(-c3cc(C)cc(C)c3)c(N3CCN(C(C)C)CC3)nc2c1`, the RP-LC retention time amounted to 695 s.

Take `Cc1ccc(NS(=O)(=O)c2cn(C(C)C)c3ncccc23)cc1F`: the RP-LC retention time worked out at 861 s.

As to `O=C(NCC1CC(=O)N(c2ccc3c(c2)OCO3)C1)c1ccccc1F` (centres undefined), the RP-LC retention time came to 664 s.

The molecule `O=C(Cn1c(-c2nnco2)cc2ccccc21)NCC1CCCO1` (centres undefined) registered an RP-LC retention time of 668 s.
